In publication PMC9716558, “A Chiral ^19F NMR Reporter of Foldamer Conformation in Bilayers” (Journal of the American Chemical Society, 2022):
Non-standard residues stand in square brackets, D forms with d. Residues, ends and D or L forms follow the SMILES beside them. *: point of attachment. d(αMeV) = CC(C)[C@@](C)(N)C(=O)O; αMeV = CC(C)[C@](C)(N)C(=O)O; X1 = C[C@@H](N*)C(F)(F)F; Cbz = O=C(OCc1ccccc1)*; Aib = CC(C)(N)C(=O)O

Test: Maximum solubility of foldamer in chloroform (saturated solution, 1H NMR)
Type: physicochemical
Settings: thermodynamic, dissolved in CDCl3 until saturated; concentration by 1H NMR against a known concentration of CH2Cl2 as internal reference
Method: 9. Quantification of foldamer solubility and self-association in CHCl3
9.1 Experimental procedure (dilution)
Compounds 5d (L-αMeVal) and 5e (D-αMeVal) were dissolved in CDCl3 until saturated solutions were formed.
The initial concentration of each sample was measured using a known concentration of CH2Cl2 as an internal […]
Additional volumes of CDCl3 were added to the initial solution and the 1H NMR spectrum at each concentration […]
The binding isotherms were generated using an Excel spreadsheet macro developed by Sanderson.S7a The Solver add-in for Excel was used to calculate the best fit to the NMR data using the ‘GRG onlinear Solvin […]
The following equilibrium is used to calculate the binding isotherms:
Where Kdim is the microscopic association constant and n = 2.
The following equation is used to calculate the binding isotherm: […]
δfree is the free chemical shift of the host
δobs is the observed chemical shift […]
The concentration of the dimeric complex (H)2 is calculated iteratively by solving the following equations: […]
The concentration of free host is calculated according to the concentration difference […]
The propensity of the L-αMeVal-capped foldamer 5d and D-αMeVal-capped foldamer 5e to self-associate was investigated in chloroform by performing a dilution study,S7 which at the same time quantified the solubility of these compounds in this solvent. […]

Structure (SMILES)	maximum solubility in CHCl3 / chloroform-d
CC(C)[C@@](C)(NC(=O)OCc1ccccc1)C(=O)NC(C)(C)C(=O)NC(C)(C)C(=O)NC(C)(C)C(=O)NC(C)(C)C(=O)N[C@H](C)C(F)(F)F [5e, Cbz(D-MeVal)Aib4(R-TFEA)] (Cbz-[d(αMeV)][Aib][Aib][Aib][Aib]-X1)	50 mM
CC(C)[C@](C)(NC(=O)OCc1ccccc1)C(=O)NC(C)(C)C(=O)NC(C)(C)C(=O)NC(C)(C)C(=O)NC(C)(C)C(=O)N[C@H](C)C(F)(F)F [5d, Cbz(L-MeVal)Aib4(R-TFEA)] (Cbz-[αMeV][Aib][Aib][Aib][Aib]-X1)	288 mM
